# In US12329729B1, “Method of treating cancer in a subject” (IMAM MOHAMMAD IBN SAUD ISLAMIC UNIVERSITY, priority 2024, dated 2025):
# Tests used:
# Type in all cases: cell-based
# [1] = test system: A549; assay: IC50 towards A549 cancer cell line; settings: Homo sapiens
# [2] = test system: PC3; assay: IC50 towards PC3 cancer cell line; settings: Homo sapiens, PC-3
# [3] = test system: FaDu; assay: IC50 towards FaDu cancer cell line; settings: Homo sapiens
# [4] = test system: MDA-MB-468; assay: IC50 towards MDA-MB-468 cancer cell line; settings: Homo sapiens
# [5] = test system: HeLa; assay: IC50 towards HeLa cancer cell line; settings: Homo sapiens
# [6] = test system: p53; assay: Upregulation of pro-apoptotic protein p53; settings: compared to the control (untreated) cells
# [7] = test system: BAX; assay: Upregulation of pro-apoptotic protein BAX; settings: compared to the control (untreated) cells
# [8] = test system: Caspase 3; assay: Upregulation of pro-apoptotic protein Caspase 3; settings: compared to the control (untreated) cells
# [9] = test system: Caspase 6; assay: Upregulation of pro-apoptotic protein Caspase 6; settings: compared to the control (untreated) cells
# [10] = test system: Caspase 8; assay: Upregulation of pro-apoptotic protein Caspase 8; settings: compared to the control (untreated) cells
# [11] = test system: Caspase 9; assay: Upregulation of pro-apoptotic protein Caspase 9; settings: compared to the control (untreated) cells
# [12] = test system: BCL-2; assay: Downregulation of anti-apoptotic protein BCL-2; settings: compared to the control (untreated) cells
# [13] = test system: MMP2; assay: Downregulation of; settings: compared to the control (untreated) cells
# [14] = test system: MMP9; assay: Downregulation of; settings: compared to the control (untreated) cells
# [15] = test system: COX-2; assay: Downregulation of pro-inflammatory marker COX-2; settings: compared to the control (untreated) cells
# [16] = test system: IL-6; assay: Downregulation of; settings: compared to the control (untreated) cells
# [17] = test system: IL-1β; assay: Downregulation of pro-inflammatory marker IL-1β; settings: compared to the control (untreated) cells
SMILES,IC50 [1],IC50 [2],IC50 [3],IC50 [4],IC50 [5],upregulation of p53 [6],upregulation of BAX [7],upregulation of Caspase 3 [8],upregulation of Caspase 6 [9],upregulation of Caspase 8 [10],upregulation of Caspase 9 [11],downregulation of BCL-2 [12],downregulation of MMP2 [13],downregulation of MMP9 [14],downregulation of COX-2 [15],downregulation of IL-6 [16],downregulation of IL-1β [17]
"CCOc1ccc(Oc2ccc(/C=N/c3ccc([Se][Se]c4ccc(/N=C/c5ccc(Oc6ccc(OCC)cc6)cc5)cc4)cc3)cc2)cc1 [YS9, N,N′-(Diselanediylbis(4,1-phenylene))bis(1-(4-(4-ethoxyphenoxy)phenyl)methanimine)]",4.4 µg/mL,12 µg/mL,4.73 µg/mL,6 µg/mL,4 µg/mL,3.50 fold changes,1.95 fold changes,5.82 fold changes,10.37 fold changes,3.16 fold changes,2.41 fold changes,0.35 fold changes,0.31 fold changes,0.48 fold changes,0.37 fold changes,0.48 fold changes,0.46 fold changes
"COc1cccc2c1C(=O)c1c(O)c3c(c(O)c1C2=O)C[C@@](O)(C(=O)CO)C[C@@H]3O[C@H]1C[C@H](N)[C@H](O)[C@H](C)O1 [doxorubicin, reference compound]",,5.83 µg/mL,13.1 µg/mL,,,,,,,,,,,,,,
